Test system: SEM cells
Test: cell viability relative to DMSO control; higher = less cytotoxic
Conditions: 48 h
How it was run: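 Viability values are per-plate percentages of DMSO wells, with background from cell-free wells. Library compounds in DMSO were pin-dosed, in an 11-point threefold series from 47 μM to 0.79 nM, onto NOMO1 or SEM (500 cells/well) or P12-Ichikawa (1000 cells/well) leukemia cells in 1536-well plates (5 μl). Those cells had been adapted for at least four passages in each medium, and CellTiter-Glo One luminescence was read after 48 h at 37°C.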

[1] = HPLM + 10% dialyzed FBS, 0.000781 µM
[2] = HPLM + 10% dialyzed FBS, 0.00234 µM
[3] = HPLM + 10% dialyzed FBS, 0.00702 µM
[4] = HPLM + 10% dialyzed FBS, 0.0211 µM
[5] = HPLM + 10% dialyzed FBS, 0.0632 µM
[6] = HPLM + 10% dialyzed FBS, 0.19 µM
[7] = HPLM + 10% dialyzed FBS, 0.569 µM
[8] = HPLM + 10% dialyzed FBS, 1.71 µM
[9] = HPLM + 10% dialyzed FBS, 5.12 µM
[10] = HPLM + 10% dialyzed FBS, 15.4 µM
[11] = HPLM + 10% dialyzed FBS, 46.1 µM
[12] = RPMI 5 mM glucose + 10% FBS, 0.000781 µM
[13] = RPMI 5 mM glucose + 10% FBS, 0.00234 µM
[14] = RPMI 5 mM glucose + 10% FBS, 0.00702 µM
[15] = RPMI 5 mM glucose + 10% FBS, 0.0211 µM
[16] = RPMI 5 mM glucose + 10% FBS, 0.0632 µM
[17] = RPMI 5 mM glucose + 10% FBS, 0.19 µM
[18] = RPMI 5 mM glucose + 10% FBS, 0.569 µM
[19] = RPMI 5 mM glucose + 10% FBS, 1.71 µM
[20] = RPMI 5 mM glucose + 10% FBS, 5.12 µM
[21] = RPMI 5 mM glucose + 10% FBS, 15.4 µM
[22] = RPMI 5 mM glucose + 10% FBS, 46.1 µM
[23] = RPMI 5 mM glucose + 10% dialyzed FBS, 0.000781 µM
[24] = RPMI 5 mM glucose + 10% dialyzed FBS, 0.00234 µM
[25] = RPMI 5 mM glucose + 10% dialyzed FBS, 0.00702 µM
[26] = RPMI 5 mM glucose + 10% dialyzed FBS, 0.0211 µM
[27] = RPMI 5 mM glucose + 10% dialyzed FBS, 0.0632 µM
[28] = RPMI 5 mM glucose + 10% dialyzed FBS, 0.19 µM
[29] = RPMI 5 mM glucose + 10% dialyzed FBS, 0.569 µM
[30] = RPMI 5 mM glucose + 10% dialyzed FBS, 1.71 µM
[31] = RPMI 5 mM glucose + 10% dialyzed FBS, 5.12 µM
[32] = RPMI 5 mM glucose + 10% dialyzed FBS, 15.4 µM
[33] = RPMI 5 mM glucose + 10% dialyzed FBS, 46.1 µM

| Structure (SMILES) | cell viability [1] | cell viability [2] | cell viability [3] | cell viability [4] | cell viability [5] | cell viability [6] | cell viability [7] | cell viability [8] | cell viability [9] | cell viability [10] | cell viability [11] | cell viability [12] | cell viability [13] | cell viability [14] | cell viability [15] | cell viability [16] | cell viability [17] | cell viability [18] | cell viability [19] | cell viability [20] | cell viability [21] | cell viability [22] | cell viability [23] | cell viability [24] | cell viability [25] | cell viability [26] | cell viability [27] | cell viability [28] | cell viability [29] | cell viability [30] | cell viability [31] | cell viability [32] | cell viability [33] |
| --- | --- | --- | --- | --- | --- | --- | --- | --- | --- | --- | --- | --- | --- | --- | --- | --- | --- | --- | --- | --- | --- | --- | --- | --- | --- | --- | --- | --- | --- | --- | --- | --- | --- |
| CCN1\C=C(C(O)=O)/C(=O)C2=C1C(=C(N3CCNC(C)C3)C(=C2)F)F (stereo not drawn) | 92.5% | 99% | 106% | 117% | 109% | 95.3% | 116% | 110% | 118% | 97.3% | 112% | 99.8% | 95% | 111% | 111% | 110% | 100% | 108% | 110% | 112% | 107% | 96.4% | 93.4% | 105% | 116% | 119% | 133% | 107% | 125% | 117% | 102% | 97% | 119% |
| CN(C)CCc1c[nH]c2ccc(Cn3cncn3)cc12 | 76.1% | 88.7% | 97.4% | 96.4% | 98% | 48.5% | 55% | 23% | 9.54% | 8.01% | 7.53% | 86% | 91% | 86.9% | 84.9% | 75.8% | 30.7% | 36.3% | 10.4% | 7.9% | 7.16% | 6.13% | 91.4% | 96.1% | 88.9% | 97.5% | 79.3% | 43.4% | 50.7% | 18.2% | 9.37% | 8.33% | 6.69% |
| CCCCN1CCC(CNC(=O)c2c3n(c4ccccc24)CCCO3)CC1 | 81.3% | 85.3% | 92.1% | 90.9% | 94.5% | 57.7% | 117% | 107% | 108% | 89.7% | 68.4% | 84.9% | 102% | 112% | 91.3% | 117% | 75.3% | 105% | 118% | 113% | 93.5% | 80.6% | 105% | 101% | 110% | 94.4% | 111% | 67.5% | 103% | 103% | 115% | 79% | 79.8% |
| Clc1ccc(C(c2ccccc2Cl)C(Cl)Cl)cc1 (stereo not drawn) | 119% | 116% | 120% | 121% | 139% | 36.1% | 117% | 126% | 33.2% | 109% | 85.9% | 116% | 121% | 111% | 110% | 112% | 36.7% | 137% | 106% | 12.6% | 97.6% | 75.1% |  |  |  |  |  |  |  |  |  |  |  |
| COCC(=O)NC/C=C/c1ccc2ncnc(Nc3ccc(Oc4ccc(C)nc4)c(C)c3)c2c1 | 87.2% | 87.7% | 87.1% | 96.4% | 92.4% | 92.3% | 108% | 90.3% | 82.2% | 89.1% | 66.5% | 102% | 105% | 124% | 95.2% | 105% | 98.8% | 103% | 97.8% | 93% | 99.9% | 34.6% | 78.8% | 82.9% | 93.6% | 95.6% | 101% | 86.8% | 94.2% | 91% | 71.6% | 88% | 49% |
| Cc1nnc(C(=O)NC(C)(C)c2nc(C(=O)NCc3ccc(F)cc3)c(O)c(=O)n2C)o1 | 107% | 111% | 116% | 102% | 101% | 123% | 113% | 108% | 104% | 108% | 107% | 96.7% | 101% | 99.2% | 120% | 125% | 93.8% | 107% | 80.8% | 90.9% | 97% | 111% | 105% | 106% | 109% | 122% | 109% | 117% | 107% | 109% | 93.9% | 98.9% | 110% |
| CC(C)(C)NCC(O)c1ccc(O)c(CO)c1 (stereo not drawn) | 101% | 99.4% | 103% | 106% | 113% | 102% | 112% | 106% | 104% | 109% | 93.6% | 118% | 113% | 115% | 112% | 108% | 125% | 109% | 95.5% | 107% | 108% | 111% | 96.9% | 112% | 109% | 124% | 115% | 114% | 111% | 116% | 120% | 122% | 114% |
| CC(O)(C[S+](=O)([O-])c1ccc(F)cc1)C(=O)Nc1ccc(C#N)c(C(F)(F)F)c1 (stereo not drawn) | 86.8% | 96.4% | 91% | 80.3% | 85.2% | 96.2% | 96.2% | 93.5% | 97.4% | 83.2% | 73.9% | 84.9% | 83.6% | 98% | 87% | 88.7% | 103% | 96.3% | 96.5% | 91.8% | 76.8% | 62.9% | 87.2% | 84.4% | 98.1% | 94.8% | 80% | 102% | 86.8% | 102% | 99.1% | 72.3% | 55% |
